According to patent US20050180954A1, “Drug for treating bone disorders” (priority 1995, published 2005):

Columns and labels:
[1] = test system: osteoclast like cells from bone marrow cells of mice of ddy strain; experiment: Formation of osteoclast like cells from bone marrow cells of mice of ddy strain; format: cell-based, mouse
Experimental: Bone marrow cells were prepared in accordance with the method by Takahashi et al (Takahashi, N. et al., Endocrinology, 122, 1373, 1988). Male mice of ddy strain of 7 weeks old were exanguinated to death under ether anesthesia and the femur and the tibia of hind legs were collected from each mouse. The connective tissues on the surfaces of the bones were carefully removed, and both ends of each bone were cut off with scissors. The bone marrow cells were suspended in α-Minimum Essential Medium (α-MEM, Nissui Pharmaceuticals Co.) containing 10% pre-colostrum new born calf serum (Mitsubishi Chemical, hereinafter referred to as “JCS” for short) and the suspension was flushed out through a 25 G needle attached to a syringe to collect the suspension in a centrifugal tube. The collected suspension was washed by centrifugation in the same medium at 2000 rpm at 4° C. for 5 minutes. The precipitated cells were dispersed in the above-mentioned medium and the washing by centrifugation was repeated twice, thereby preparing bone marrow cells. Murine IFN-α (hereinafter referred to as “MuIFNα” for short), Lot. B13010, 106 units/ml/vial (Calbiochem-Novabiochem International, San Diego, Calif.), murine IFN-β (hereinafter referred to as “MuIFNβ” for short), Lot M-0034, 10 units/ml/vial (Toray Industries, Inc.) and murine IFNγ (hereinafter referred to as “MuIFNγ” for short), Lot 254F3, 2.06×10^6 units/ml (Genentech, Calif.) were respectively dissolved in 10% JCS-containing α-MEM (Nissui Pharmaceuticals Co.) to the desired concentrations. Active vitamin D3 ([…], Wako Pure Chemical Industries, Ltd., hereinafter referred to as “Vit D3” for short) was dissolved in argon-saturated ethanol, and the obtained solution was diluted so as to attain the final ethanol concentration of 0.1% in all of the culture systems.
The number of viable bone marrow cells was counted using tripam blue dye exclusion test and the bone marrow cells were diluted with α-MEM containing 10% JCS, 10^−8M Vit D3, 10^−7 M dexamethasone to a population density of 1.5×10^6 cells/ml, followed by placing the resulting suspension in each well in 24-well plates in an amount of 0.45 ml/well. To each well, 50 μl of the medium containing varying concentration of IFN was added to make the volume to 0.5 ml/well and culturing was begun. At every three days, 0.4 ml of the culture medium was removed from each well and 0.4 ml of fresh medium (the above-mentioned medium containing the respective concentration of IFN) was added. On Day 8 from the beginning of the culturing, the medium was removed and the cells were fixed with mixed solution of ethyl alcohol and diethyl ether (1:1) and the cells were stained with tartrate resistant acid phosphatase (TRAP), followed by counting TRAP positive multinuclear cells with a phase contrast microscope. […] The inhibition effect of IFNγ was stronger than that of IFNβ. That is, the inhibition concentration IC50 of IFNγ was not more than 0.1 units/ml, and that of IFNβ was 0.2 units/ml.
The effects of the three murine IFNs, that is, MuIFNβ, γ and α in terms of abilities to inhibit formation of osteoclast like cells from bone marrow cells in mice of ddy strain were compared. The test was carried out as in Example 1. All of the murine IFNs inhibited the formation of osteoclast like cells, and the effect was strong in the order of γ, β and α. […] Thus, the activity of IFNα to inhibit formation of osteoclasts was about 1/20 of that of IFNβ and about not more than 1/100 of that of IFNγ.

[2] = test system: ovariectomized mice of ddy strain; experiment: Osteoporosis model mice (ovariectomy): dry bone weight of femur; format: in vivo, mouse
Experimental: Female mice of ddy strain of 8 weeks old were divided into 5 groups and experiment was carried out. Bilateral ovariectomy was performed on the mice in 3 groups and sham operation alone was performed on the mice in 2 groups. Thereafter, the mice were raised with normal diet for 1 month, thereby making the state of osteoporosis in the ovariectomized groups. In this model, it is known that the mice become the state of osteoporosis 2 to 3 weeks after the ovariectomy (T. Hosaka et al., ANITEX, Vol. 5, 243, 1992; Miyaura, C. et al., J. Bone Mineral Res., 10, 1365, 1995). From the third weeks from the ovariectomy, murine IFN was subcutaneously administered (100 μl/head/time) once per day, totally 25 times. On Day 30 from the beginning of administration, under ether anesthesia, body weight was measured, blood was collected, and femur was collected and dry bone weight thereof was measured for each mouse.
Drying of femur was performed as follows. That is, femur was fixed with 2 ml of 70% ethanol per one taken out femur at room temperature for 24 hours and then the attached muscles and connective tissues were carefully removed with a forceps and surgical knife with replaceable blade. After immersing the femur in fresh 70% ethanol for 72 hours at room temperature, the femur was dried in a hot wind-generating incubator (Koukensha Engineering. Co., Tokyo) at 55° C. for 24 hours. The weight of the dried bone was measured with an electronic force balance (Mettler AE50, Metteler Instrumente AG, Switzerland). Murine IFN to be administered was diluted to the desired concentration with physiological saline. During the test, urine of mice was collected with metabolic cage (KN-645, Natsumeseisakusho, Tokyo) and frozen to store. To one group subjected to the sham operation, physiological saline (Otsuka Pharmaceutical Co.) was administered, and to another group subjected to the sham operation, murine IFNβ was administered at a dose of 10^5 units/head/time (diluted with physiological saline when use). […]

Substance: MuIFNβ: murine interferon β, Lot M-0034, prepared by Toray Industries, Inc. by genetic engineering technique
- inhibition of formation of osteoclast like cells ([1]; Example 1, Day 8, TRAP positive multinuclear cells): strongly inhibited formation of osteoclast like cells
- inhibition concentration IC50 of formation of osteoclast like cells ([1]; Example 1, Vit D3 + dexamethasone, Day 8, TRAP positive multinuclear cells): 0.2 units/ml
- IC50 of inhibition of formation of osteoclast like cells ([1]; Example 8 comparison of three murine IFNs): about 0.9 units/ml
- bone volume (dry bone weight of femur) ([2]; ovariectomized mice, 10^3 units/head/time s.c.): exhibited prevention effect against further loss in the bone volume
- bone volume (dry bone weight of femur) ([2]; ovariectomized mice, 10^5 units/head/time s.c. once per day, 25 times, Day 30): recovered the normal level of bone volume
- bone volume (dry bone weight of femur) ([2]; sham operation mice, 10^5 units/head/time s.c.): significant increase in the bone volume was not observed
